According to paper PMC4340763 (Journal of immunology (Baltimore, Md. : 1950), 2015):
Peptide text beside a SMILES is read from it.

Target: soluble HLA-A*0201 molecules (Homo sapiens, UniProt P04439, D140Y/D185E/D98H/E176V/E277Q/G131W/G231S/I119V/I121R/I166T/I218V/L300P/L318F/N151K/N90K/P208A/P217A/Q86G/Q94H/R138H/R169H/T345S)
Experiment: Binding affinity of synthetic peptides to soluble HLA-A*0201 molecules

Compound	IC50	Kd	binding affinity to soluble HLA-A*0201 molecules (in words) (soluble HLA-A*0201 molecules)
CC(C)C[C@H](NC(=O)[C@@H](N)Cc1ccccc1)C(=O)N[C@H](C(=O)N[C@@H](CS)C(=O)N[C@H](C(=O)N[C@@H](CC(=O)O)C(=O)N[C@@H](CCCNC(=N)N)C(=O)N[C@@H](CO)C(=O)N[C@H](C(=O)O)C(C)C)[C@@H](C)O)[C@@H](C)O [VP11/12_66–74] (H-FLTCTDRSV-OH)	0.083 µM	0.081 µM	
CSCC[C@H](N)C(=O)N[C@@H](CC(C)C)C(=O)N[C@@H](Cc1c[nH]c2ccccc12)C(=O)N[C@H](C(=O)N[C@H](C(=O)N[C@@H](CC(=O)O)C(=O)N[C@@H](CCCCN)C(=O)N[C@@H](Cc1c[nH]cn1)C(=O)N[C@H](C(=O)O)C(C)C)[C@@H](C)O)[C@@H](C)O [VP11/12_238–246] (H-MLWTTDKHV-OH)	1.29 µM		
CC[C@H](C)[C@H](NC(=O)[C@@H](N)CCCNC(=N)N)C(=O)N[C@@H](CCC(N)=O)C(=O)N[C@@H](CCC(N)=O)C(=O)N[C@@H](Cc1ccc(O)cc1)C(=O)N[C@@H](CCSC)C(=O)N[C@@H](Cc1ccccc1)C(=O)N[C@@H](Cc1ccccc1)C(=O)N[C@@H](CCSC)C(=O)O [VP11/12_197–205] (H-RIQQYMFFM-OH)	0.081 µM	0.083 µM	
CC(C)C[C@H](NC(=O)[C@H](CCCCN)NC(=O)[C@@H](NC(=O)[C@H](CC(C)C)NC(=O)[C@H](CC(C)C)NC(=O)[C@H](C)NC(=O)[C@H](CO)NC(=O)[C@H](CC(C)C)NC(=O)[C@H](C)N)[C@@H](C)O)C(=O)O [VP11/12_702–710] (H-ALSALLTKL-OH)	0.313 µM	0.313 µM	
CC(C)C[C@H](NC(=O)[C@H](CC(C)C)NC(=O)[C@H](CCC(=O)O)NC(=O)[C@H](CC(N)=O)NC(=O)[C@H](CC(C)C)NC(=O)[C@@H](N)CCCNC(=N)N)C(=O)N[C@@H](C)C(=O)N[C@@H](Cc1ccc(O)cc1)C(=O)N[C@H](C(=O)O)C(C)C [VP11/12_220–228] (H-RLNELLAYV-OH)	0.709 µM	0.709 µM	
ILTQYWKYL [VP11/12_127–135]			did not bind
